Where a name gives a salt, the structure may show the parent alone.

A word on the melting point: it is the temperature, or range, at which the solid turns liquid. The compound `CNCc1cc2ccccc2nc1Oc1ccc(Cl)c(Cl)c1` (as salt: HCl) [Example 104, [2-(3,4-Dichlorophenoxy)-3-quinolinyl]-N-methylmethanamine] yielded a melting point of 224 to 226 °C.

`CNCc1cccnc1Oc1ccc(Cl)c(Cl)c1` (as salt: HCl) [Example 105, [2-(3,4-Dichlorophenoxy)-3-pyridinyl]-N-methylmethanamine]: the melting point was in the range of 198 to 203 °C.

As to `CNCc1cnccc1Oc1ccc(Cl)c(Cl)c1` (as salt: hydrochloride) [Example 103, [4-(3,4-Dichlorophenoxy)-3-pyridinyl]-N-methylmethanamine hydrochloride], the melting point is 198 to 203 °C.

`CN(C)Cc1cccnc1Oc1ccc(Cl)cc1` (as salt: hydrochloride) [Example 106, [2-(4-Chlorophenoxy)-3-pyridinyl]-N,N-dimethylmethanamine hydrochloride]: the melting point is 195 to 197 °C.

The values above are taken from US7129234B2, “Phenyl heterocyclyl ethers” (Pfizer Inc., priority 2001, dated 2006).
